# Results reported in a melting point compilation (Tetko et al.; mined from patent text by program, amines drawn as free bases though some values may be those of a salt).
row,melting point [°C],SMILES
1,284 to 285,COc1cc2c(=O)n3nc(C(=O)O)cc3n(C)c2cc1OC
2,252 to 253,C[C@H](Cn1cccn1)NC(=O)c1c[nH]c2ncc(-c3nn(C)c4cc(F)ccc34)nc12
3,209 to 210,Cc1cc2c(cc1C)C(=O)C(C#N)C2=O
4,143 to 144,COC(=O)C1=C(O)C(OC)(OC)C(O)=C(C(=O)OC)C1
5,169 to 170,CCOP(=O)(/C=C/c1cn(-c2ccccc2)nc1OCc1ccc(OCc2nc(-c3ccco3)oc2C)c(C(=O)O)c1)OCC
6,192 to 193,CC(=O)SCC1CCCCCCCSC[C@@H](C(=O)OCc2ccccc2)NC1=O (stereo partly specified)
7,341 to 343,Cn1nc(-c2cnc3[nH]cc(C(=O)NC4CCCC4)c3n2)c2ccc(Cl)cc21
8,131 to 132,CSCC(C)(C)NC(=O)c1c(I)cccc1C(=O)Nc1ccc(-c2nnnn2C2CC2)cc1C
9,103 to 106,C=C(COc1cc(Cl)ccc1C=NNP(=O)(OCC)OCC)C(C)C
10,122 to 125,CC1(C)CC(=O)C(S(=O)Cc2ccc(F)cc2)=C(O)C1 (stereo unspecified)
11,167 to 168,Cc1nc2c3c(c(C(=O)NCCO)cc2n1C)CCC1(Cc2ccccc2C1)N3
12,125 to 127,O=C(O)CN1C(=O)CN(Cc2ccccc2)C1=O
13,68 to 70,COc1cccc2c1CCC(C=O)C2=O (stereo unspecified)
14,70 to 72,CCCCCCOc1ccc(NC(=O)CC(=O)C(C)(C)C)cc1
15,59 to 60,CC(C)CCC1C(=O)N(CCl)S(=O)(=O)N1C (stereo unspecified)
16,112,CCn1c(=O)n(CCCCC(C)=O)c(=O)c2cnn(C)c21
17,130 to 133,COCCN(C)Cc1ccc(NC(=O)C#Cc2ccc(-c3ccc(Cl)cc3)cc2)cc1
18,87 to 88,CCOC(=O)c1cc2ccc([Si](C)(C)C)cc2n1Cc1cccc(F)c1
19,274 to 279,CC1(CN)CN(c2cc3c(cc2F)c(=O)c(C(=O)O)cn3C2CC2)C1
20,106 to 108,CC(=O)c1cc(Oc2ncccc2C(=O)NC[C@H]2CC[C@H](C(C)(C)O)CC2)ccc1Cl

# Second part, the compound before the results:
row,SMILES,melting point [°C]
1,O=C(Nc1ccc(CCCCC2(C(=O)NCC(F)(F)F)c3ccccc3-c3ccccc32)nc1)c1ccccc1,109 to 113
2,Cc1cc(CN2CCOCC2)cc2c1Cc1c(-c3ccsc3)n[nH]c1-2,232 to 233
3,N#Cc1cc(-c2nc3cncnc3s2)ccc1Oc1ccccc1O,255 to 256
4,O=C1Cc2cc(F)c(F)cc2N1,187 to 190
5,COc1cc(N)c(Cl)cc1C(=O)NC1C2CCN(CC2)C1CN1CCCCC1 (stereo unspecified),185 to 187
6,O=C1NCC(Cc2ccccc2F)O1 (stereo unspecified),113 to 114
7,Clc1ccc(CN2CCN=C2Cc2ccccc2)c(Cl)c1,185 to 189
8,N=C1NN(c2ccccc2)CC1CN1CCOCC1 (stereo unspecified),204 to 205
9,NC(=NCC(F)(F)F)Nc1cncc(Cl)n1,139 to 140
10,CC(C)(C)c1nc2cc(N3CCCC3)c(N=C=S)cc2s1,89 to 90
11,CCOC(=O)c1cc(NCc2ccccc2)c(Nc2ccccc2)c(S(=O)(=O)Nc2ccccc2)c1,166 to 167
12,Cc1oc2ccccc2c1C(=O)NCc1ccc2cc(O)ccc2c1,195 to 198
13,COCCCc1ccc(CNC(=O)[C@@H](COC)NC(C)=O)cc1,105 to 107
14,O=c1[nH]nc2ccc(S)nn12,> 300
15,CN(C)Cc1ccc(CSCCNC(=N)N[N+](=O)[O-])s1,118
16,COC(=O)/C=C\C(=O)Nc1ccc2c(=O)n3c(nc2c1)C(=Cc1ccccc1)CC3,233 to 235
17,COc1ccc(S(=O)(=O)Nc2ccccc2C(F)(F)F)cc1,92 to 93
18,CCCC1=C(C#N)C(c2cccc3c2OCCC3)c2c[nH]nc2N1 (stereo unspecified),230
19,COc1cc(Cl)cc(C(=O)C(F)(F)F)c1N,124 to 126
20,COc1ccc(C(=O)Nc2nc3cc4c(cc3[nH]2)NC(=O)C4(C)C)cc1,> 300
21,Cc1cc(-c2cc(C(F)(F)F)nn2-c2ccc(S(N)(=O)=O)cc2)ccc1-c1cocn1,112 to 114
